Measured values as given in paper PMC3959874 (European journal of dermatology : EJD, 2013).
Read-outs that look alike come from different tables or passages of the source.

Legend:
CYP450, 1A2 = CYP450, 1A2 (Homo sapiens, UniProt P05177); experiment: Cytochrome P450 enzyme assay; format: in vitro ADME; conditions: 10 μM; 37 °C, 30 min
CYP450, 2C19 = CYP450, 2C19 (Homo sapiens, UniProt P33261); experiment: Cytochrome P450 enzyme assay; format: in vitro ADME; conditions: 10 μM; 37 °C, 45 min
Adenosine A2A = Adenosine A2A (Homo sapiens, UniProt P29274); experiment: Radioligand binding assay; conditions: 10 μM; 25 °C, 90 min
Chain of Adenosine A2A (P29274 whole entry): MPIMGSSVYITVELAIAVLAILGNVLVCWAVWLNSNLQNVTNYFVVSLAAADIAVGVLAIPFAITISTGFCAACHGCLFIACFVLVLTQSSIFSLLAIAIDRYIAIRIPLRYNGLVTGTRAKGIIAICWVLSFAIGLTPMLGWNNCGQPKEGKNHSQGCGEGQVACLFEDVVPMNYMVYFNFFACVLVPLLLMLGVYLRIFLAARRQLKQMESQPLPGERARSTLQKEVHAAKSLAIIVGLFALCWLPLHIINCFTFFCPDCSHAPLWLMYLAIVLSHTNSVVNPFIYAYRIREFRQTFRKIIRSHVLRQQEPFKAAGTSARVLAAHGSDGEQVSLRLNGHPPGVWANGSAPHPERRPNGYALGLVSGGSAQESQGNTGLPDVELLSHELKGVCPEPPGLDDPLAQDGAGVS

Adenosine A3 = Adenosine A3 (Homo sapiens, UniProt P0DMS8); experiment: Radioligand binding assay; conditions: 10 μM; 25 °C, 60 min
Chain of Adenosine A3 (P0DMS8 whole entry): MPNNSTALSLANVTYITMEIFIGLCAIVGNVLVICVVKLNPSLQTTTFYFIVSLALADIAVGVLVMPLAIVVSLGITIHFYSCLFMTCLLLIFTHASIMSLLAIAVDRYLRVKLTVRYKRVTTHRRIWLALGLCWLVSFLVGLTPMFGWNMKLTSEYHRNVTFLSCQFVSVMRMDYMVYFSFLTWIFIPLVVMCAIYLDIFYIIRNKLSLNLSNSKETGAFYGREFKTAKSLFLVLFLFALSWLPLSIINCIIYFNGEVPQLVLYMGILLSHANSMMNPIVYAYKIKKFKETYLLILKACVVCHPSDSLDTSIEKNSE

Adrenergic a2A = Adrenergic a2A (Homo sapiens, UniProt P08913); experiment: Radioligand binding assay; conditions: 10 μM; 25 °C, 60 min
Chain of Adrenergic a2A (P08913 whole entry): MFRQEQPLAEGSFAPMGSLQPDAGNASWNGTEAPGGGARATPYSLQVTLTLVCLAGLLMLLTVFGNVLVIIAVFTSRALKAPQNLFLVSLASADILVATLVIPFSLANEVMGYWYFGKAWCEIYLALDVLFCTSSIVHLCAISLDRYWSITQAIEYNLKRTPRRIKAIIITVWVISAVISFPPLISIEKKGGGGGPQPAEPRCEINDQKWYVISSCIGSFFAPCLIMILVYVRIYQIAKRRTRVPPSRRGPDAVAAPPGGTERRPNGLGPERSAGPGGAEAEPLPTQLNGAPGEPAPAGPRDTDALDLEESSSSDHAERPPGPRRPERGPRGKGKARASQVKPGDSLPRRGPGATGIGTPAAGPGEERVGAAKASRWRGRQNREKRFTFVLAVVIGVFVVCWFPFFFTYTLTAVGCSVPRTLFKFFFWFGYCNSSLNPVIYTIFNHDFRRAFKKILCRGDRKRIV

Bradykinin B1 = Bradykinin B1 (Homo sapiens, UniProt P46663); experiment: Radioligand binding assay; conditions: 10 μM; 25 °C, 60 min
Bradykinin B2 = Bradykinin B2 (Homo sapiens, UniProt P30411); experiment: Radioligand binding assay; conditions: 10 μM; 25 °C, 60 min
[1] = system: Calcium Channel L-Type, Benzothiazepine; experiment: Radioligand binding assay; parameters: species or system rat; conditions: 10 μM; 4 °C, 180 min
Calcium Channel N-Type = Calcium Channel N-Type (Rattus norvegicus, UniProt Q02294); experiment: Radioligand binding assay; conditions: 10 μM; 4 °C, 30 min
Cannabinoid CB1 = Cannabinoid CB1 (Homo sapiens, UniProt P21554); experiment: Radioligand binding assay; conditions: 10 μM; 37 °C, 90 min
Chain of Cannabinoid CB1 (P21554 whole entry): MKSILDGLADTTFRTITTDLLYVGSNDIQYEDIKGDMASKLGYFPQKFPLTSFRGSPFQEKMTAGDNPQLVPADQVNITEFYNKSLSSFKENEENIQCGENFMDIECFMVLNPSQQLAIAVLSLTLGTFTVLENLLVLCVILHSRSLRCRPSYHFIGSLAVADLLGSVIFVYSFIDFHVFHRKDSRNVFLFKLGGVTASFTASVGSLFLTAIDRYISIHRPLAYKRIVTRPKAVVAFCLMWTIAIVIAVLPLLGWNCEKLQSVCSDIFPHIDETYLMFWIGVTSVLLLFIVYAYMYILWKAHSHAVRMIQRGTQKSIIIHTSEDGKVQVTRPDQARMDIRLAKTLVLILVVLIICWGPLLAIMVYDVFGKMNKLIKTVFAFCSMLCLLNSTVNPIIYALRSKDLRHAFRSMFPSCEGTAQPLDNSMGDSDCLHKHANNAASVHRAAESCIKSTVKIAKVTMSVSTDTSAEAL

Dopamine D24 = Dopamine D24 (Homo sapiens, UniProt P14416); experiment: Radioligand binding assay; conditions: 10 μM; 37 °C, 120 min
Chain of Dopamine D24 (P14416 whole entry): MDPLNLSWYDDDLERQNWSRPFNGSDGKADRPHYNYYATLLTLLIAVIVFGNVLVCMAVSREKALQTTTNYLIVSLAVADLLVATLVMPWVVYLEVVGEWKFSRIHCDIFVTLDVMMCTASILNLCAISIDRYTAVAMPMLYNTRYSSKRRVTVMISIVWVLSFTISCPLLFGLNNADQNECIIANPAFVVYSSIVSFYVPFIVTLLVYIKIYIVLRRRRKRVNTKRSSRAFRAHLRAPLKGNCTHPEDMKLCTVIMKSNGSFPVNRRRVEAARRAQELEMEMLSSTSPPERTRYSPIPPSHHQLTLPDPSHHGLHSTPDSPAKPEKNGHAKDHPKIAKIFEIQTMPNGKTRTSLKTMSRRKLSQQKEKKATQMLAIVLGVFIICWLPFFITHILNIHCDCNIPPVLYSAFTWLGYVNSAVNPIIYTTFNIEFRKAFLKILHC

Dopamine D3 = Dopamine D3 (Homo sapiens, UniProt P35462); experiment: Radioligand binding assay; conditions: 10 μM; 37 °C, 120 min
Chain of Dopamine D3 (P35462 whole entry): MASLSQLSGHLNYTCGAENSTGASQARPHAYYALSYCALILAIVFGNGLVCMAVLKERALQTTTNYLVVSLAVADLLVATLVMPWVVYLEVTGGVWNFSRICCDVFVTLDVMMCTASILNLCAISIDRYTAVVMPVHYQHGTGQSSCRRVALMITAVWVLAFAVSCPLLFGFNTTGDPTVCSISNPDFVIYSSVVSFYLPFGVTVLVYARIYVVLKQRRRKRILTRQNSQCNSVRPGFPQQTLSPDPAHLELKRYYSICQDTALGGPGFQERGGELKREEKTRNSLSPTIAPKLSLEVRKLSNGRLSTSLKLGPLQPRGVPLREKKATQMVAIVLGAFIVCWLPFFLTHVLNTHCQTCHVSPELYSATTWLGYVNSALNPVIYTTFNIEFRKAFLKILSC

Endothelin ETA = Endothelin ETA (Homo sapiens, UniProt P25101); experiment: Radioligand binding assay; conditions: 10 μM; 37 °C, 120 min
Endothelin ETB = Endothelin ETB (Homo sapiens, UniProt P24530); experiment: Radioligand binding assay; conditions: 10 μM; 25 °C, 120 min
Chain of Endothelin ETB (P24530 27-442): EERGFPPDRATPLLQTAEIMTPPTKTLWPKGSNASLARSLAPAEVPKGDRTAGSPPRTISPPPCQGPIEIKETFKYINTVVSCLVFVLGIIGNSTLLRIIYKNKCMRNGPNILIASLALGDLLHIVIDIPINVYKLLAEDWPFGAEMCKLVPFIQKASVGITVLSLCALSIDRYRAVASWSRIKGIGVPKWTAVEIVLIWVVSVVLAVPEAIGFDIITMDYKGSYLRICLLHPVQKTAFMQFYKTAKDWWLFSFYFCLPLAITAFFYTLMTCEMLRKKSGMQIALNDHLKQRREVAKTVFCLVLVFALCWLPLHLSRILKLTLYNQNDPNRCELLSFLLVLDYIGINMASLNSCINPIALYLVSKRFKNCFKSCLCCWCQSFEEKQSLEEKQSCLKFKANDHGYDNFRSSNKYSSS

Glucocorticoid = Glucocorticoid (Homo sapiens, UniProt P04150); experiment: Radioligand binding assay; conditions: 10 μM; 25 °C, 120 min
Glutamate, Kainate = experiment: Radioligand binding assay; parameters: species or system rat; conditions: 10 μM; 4 °C, 60 min
Histamine H1 = Histamine H1 (Homo sapiens, UniProt P35367); format: binding; conditions: 10 μM; 25 °C, 180 min
Imidazoline I2, Central = experiment: Radioligand binding assay; parameters: species or system rat; conditions: 10 μM; 25 °C, 30 min
Melatonin MT1 = Melatonin MT1 (Homo sapiens, UniProt P48039); experiment: Radioligand binding assay; conditions: 10 μM; 25 °C, 180 min
Chain of Melatonin MT1 (P48039 whole entry): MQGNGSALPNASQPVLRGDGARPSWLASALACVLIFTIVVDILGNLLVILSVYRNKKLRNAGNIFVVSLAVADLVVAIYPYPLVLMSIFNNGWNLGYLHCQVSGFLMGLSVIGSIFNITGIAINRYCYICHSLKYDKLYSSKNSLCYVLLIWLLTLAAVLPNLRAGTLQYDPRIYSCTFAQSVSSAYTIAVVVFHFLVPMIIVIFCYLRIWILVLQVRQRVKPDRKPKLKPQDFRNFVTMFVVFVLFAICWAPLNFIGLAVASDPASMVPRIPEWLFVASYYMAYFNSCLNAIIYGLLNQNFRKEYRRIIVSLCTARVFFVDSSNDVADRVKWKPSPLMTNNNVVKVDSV

Muscarinic M1 = Muscarinic M1 (Homo sapiens, UniProt P11229); format: binding; conditions: 10 μM; 25 °C, 120 min
Chain of Muscarinic M1 (P11229 whole entry): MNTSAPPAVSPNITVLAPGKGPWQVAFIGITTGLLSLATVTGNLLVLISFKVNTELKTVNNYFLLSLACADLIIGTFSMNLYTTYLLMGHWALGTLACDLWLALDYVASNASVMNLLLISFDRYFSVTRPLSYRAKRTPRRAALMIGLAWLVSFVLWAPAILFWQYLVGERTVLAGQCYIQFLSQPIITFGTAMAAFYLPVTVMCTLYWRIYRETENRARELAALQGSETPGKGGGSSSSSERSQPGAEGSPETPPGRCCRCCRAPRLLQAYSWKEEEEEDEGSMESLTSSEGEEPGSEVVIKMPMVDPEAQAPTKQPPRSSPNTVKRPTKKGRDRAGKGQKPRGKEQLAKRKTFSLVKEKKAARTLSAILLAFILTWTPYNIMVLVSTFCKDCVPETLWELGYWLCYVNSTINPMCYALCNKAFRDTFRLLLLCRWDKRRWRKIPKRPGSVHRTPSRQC

Nicotinic Acetylcholine = experiment: Radioligand binding assay; parameters: species or system human; conditions: 10 μM; 25 °C, 60 min
Opiate K (OP2, KOP) = Opiate K (OP2, KOP) (Homo sapiens, UniProt P41145); experiment: Radioligand binding assay; conditions: 10 μM; 25 °C, 60 min
Chain of Opiate K (OP2, KOP) (P41145 whole entry): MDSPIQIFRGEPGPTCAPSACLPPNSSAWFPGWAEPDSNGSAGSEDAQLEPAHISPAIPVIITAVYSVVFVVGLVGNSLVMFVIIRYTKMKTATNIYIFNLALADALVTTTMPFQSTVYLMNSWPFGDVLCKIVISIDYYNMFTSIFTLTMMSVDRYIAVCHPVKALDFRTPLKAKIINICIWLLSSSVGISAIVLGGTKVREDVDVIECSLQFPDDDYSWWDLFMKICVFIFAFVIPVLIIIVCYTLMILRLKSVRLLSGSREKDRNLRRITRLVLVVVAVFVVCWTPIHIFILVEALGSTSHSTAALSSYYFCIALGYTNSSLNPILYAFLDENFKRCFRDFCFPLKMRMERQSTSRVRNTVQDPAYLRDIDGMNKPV

Phorbol Ester = experiment: Radioligand binding assay; parameters: species or system mouse; conditions: 10 μM; 25 °C, 60 min
Potassium Channel hERG = Potassium Channel hERG (Homo sapiens, UniProt Q12809); experiment: Radioligand binding assay; conditions: 10 μM; 25 °C, 60 min
Purinergic P2, = experiment: Radioligand binding assay; parameters: species or system rat; conditions: 10 μM; 25 °C, 60 min
[2] = molecular target: Transporter, Norepinephrine (NET) (Homo sapiens, UniProt P23975); experiment: Radioligand binding assay; conditions: 10 μM; 4 °C, 180 min
[3] = system: primary bone marrow derived dendritic cells (BMDC); experiment: Cytokine induction; format: cell-based, mouse; conditions: graded doses overnight, ELISA (figures 1B, C)
[4] = format: in vivo, mice; conditions: for Body weight change after a single intravenous injection of the MTD: 150 mg/kg TMX-202 or 15 mg/kg IMQ i.v. (figure 4)
human PBMC = experiment: IFN-γ secretion by stimulated PBMC; format: cell-based
[5] = Serum drug concentration after topical skin application; conditions: mice, TMX-202 from TMX-202 gel, IMQ from Aldara

Chain of CYP450, 1A2 (P05177 whole entry): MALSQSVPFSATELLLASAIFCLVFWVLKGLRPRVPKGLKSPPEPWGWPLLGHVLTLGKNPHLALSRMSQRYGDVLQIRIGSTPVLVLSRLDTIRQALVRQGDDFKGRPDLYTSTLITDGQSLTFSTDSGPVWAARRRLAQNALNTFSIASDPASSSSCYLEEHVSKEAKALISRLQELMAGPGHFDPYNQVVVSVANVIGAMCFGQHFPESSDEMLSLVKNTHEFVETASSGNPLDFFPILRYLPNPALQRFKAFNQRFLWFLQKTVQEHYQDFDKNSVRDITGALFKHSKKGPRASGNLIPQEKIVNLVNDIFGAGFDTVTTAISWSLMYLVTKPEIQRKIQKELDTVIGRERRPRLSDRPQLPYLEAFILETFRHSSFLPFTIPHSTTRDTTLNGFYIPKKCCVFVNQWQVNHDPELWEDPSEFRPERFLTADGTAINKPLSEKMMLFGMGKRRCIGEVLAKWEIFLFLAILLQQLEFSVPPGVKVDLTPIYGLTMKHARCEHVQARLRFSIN

Q: What does the source list for `CCCCCCCCCCCC(=O)OC[C@@H](COP(=O)(O)OCCNC(=O)c1ccc(Cn2c(=O)[nH]c3c(N)nc(OCCOC)nc32)cc1)OC(=O)CCCCCCCCCCC` [TMX-202]?
A: Percent inhibition of enzyme activity (CYP450, 1A2): −4%; Percent inhibition of enzyme activity (CYP450, 2C19): 1%; Percent inhibition of specific radioligand binding (Adenosine A2A): −8%; Percent inhibition of specific radioligand binding (Adenosine A3): 6%; Percent inhibition of specific radioligand binding (Adrenergic a2A): 3%; Percent inhibition of specific radioligand binding (Bradykinin B1): 3%; Percent inhibition of specific radioligand binding (Bradykinin B2): −2%; Percent inhibition of specific radioligand binding [1]: 1%; Percent inhibition of specific radioligand binding (Calcium Channel N-Type): −12%; Percent inhibition of specific radioligand binding (Cannabinoid CB1): −14%; Percent inhibition of specific radioligand binding (Dopamine D24): 25%; Percent inhibition of specific radioligand binding (Dopamine D3): 15%; Percent inhibition of specific radioligand binding (Endothelin ETA): 13%; Percent inhibition of specific radioligand binding (Endothelin ETB): −7%; Percent inhibition of specific radioligand binding (Glucocorticoid): −1%; Percent inhibition of specific radioligand binding (Glutamate, Kainate): 1%; Percent inhibition of specific radioligand binding (Histamine H1): −6%; Percent inhibition of specific radioligand binding (Imidazoline I2, Central): −3%; Percent inhibition of specific radioligand binding (Melatonin MT1): 3%; Percent inhibition of specific radioligand binding (Muscarinic M1): 0%; Percent inhibition of specific radioligand binding (Nicotinic Acetylcholine): 9%; Percent inhibition of specific radioligand binding (Opiate K (OP2, KOP)): −9%; Percent inhibition of specific radioligand binding (Phorbol Ester): −8%; Percent inhibition of specific radioligand binding (Potassium Channel hERG): −4%; Percent inhibition of specific radioligand binding (Purinergic P2,): 8%; Percent inhibition of specific radioligand binding [2]: 57%; Potency of mIL-6 and mIL-1β induction compared with IMQ [3]: more potent cytokine inducer; MTD (molar) ([4]; C57BL/6 mice, intravenous administration): approximately 163 μmoles/kg; Body weight change after a single intravenous injection of the MTD ([4]; Tlr7−/− or Myd88−/− mice): no significant body weight loss; Body weight change after a single intravenous injection of the MTD ([4]; WT mice): significant reduction in body weight; IFN-γ secretion compared with vehicle treated controls (human PBMC; PBMC from five independent donors (figure 6C)): significantly higher than vehicle treated controls; Average IFN-γ levels in the TMX-202+CM (human PBMC; human PBMC 10^6/mL, 1 μM TMX-202, 24 hrs, three donors): 204 ± 113 pg/mL; Serum level of the compound one hour after the application [5]: 2.6 ± 0.6 pg/mL
